Assay results reported in patent US12509444B2, “Compounds and methods for CD73 modulation and indications therefor” (Plexxikon Inc., priority 2019, dated 2025).

How the values were obtained:
[1] = biological target: T1, Human CD73 (amino acid residues 27-549) (Homo sapiens, UniProt P21589); assay: CD73 enzymatic assay (luciferase-based indirect assay, CellTiter-Glo); type: biochemical; settings: 0.4 nM CD73, 150 μM AMP, 1 hour at room temperature
T1 construct: Human CD73 (amino acid residues 27-549); His tag (N); made in house; host or cells: E. coli
T1 sequence (P21589 27-549): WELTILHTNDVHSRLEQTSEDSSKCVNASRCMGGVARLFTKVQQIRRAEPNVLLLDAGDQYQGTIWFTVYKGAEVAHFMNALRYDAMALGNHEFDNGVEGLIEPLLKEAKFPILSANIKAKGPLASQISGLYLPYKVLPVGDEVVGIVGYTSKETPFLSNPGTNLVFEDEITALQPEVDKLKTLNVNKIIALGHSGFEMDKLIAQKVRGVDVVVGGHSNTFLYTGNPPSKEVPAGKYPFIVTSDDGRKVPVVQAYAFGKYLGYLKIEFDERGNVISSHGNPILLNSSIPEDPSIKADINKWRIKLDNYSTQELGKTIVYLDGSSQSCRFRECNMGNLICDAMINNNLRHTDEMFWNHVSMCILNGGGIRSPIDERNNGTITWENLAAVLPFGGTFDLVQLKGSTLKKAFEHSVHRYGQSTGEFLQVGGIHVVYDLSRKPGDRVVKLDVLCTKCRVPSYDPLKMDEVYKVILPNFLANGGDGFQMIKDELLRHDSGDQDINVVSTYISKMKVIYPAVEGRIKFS
In short: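 Residual AMP inhibits luciferase, so luminescence reports CD73 turnover; read with CellTiter-Glo 2.0 plus 1 μM final ATP, 30 min. Reaction used 0.4 nM N-His CD73 (27-549, E. coli), 150 μM AMP, HEPES pH 7.4 with Tween 20, 1 h at room temperature. IC50 fitted by nonlinear regression.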

human CD73 = biological target: T2, human CD73 (Homo sapiens, UniProt P21589); assay: Inhibitor activity against CD73 in cell based assay (CD73 expressing CHO-K1 cells); settings: CHO-K1 cells expressing human CD73, 150 μM AMP, 4 hours of incubation; read-out: CHO-K1 CELL VARIANT: CD73 IC50
T2 construct: expressed in transfected cells
T2 sequence (P21589 27-549): T1 sequence (P21589 27-549)
In short: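 Residual supernatant AMP was quantified via CellTiter-Glo luminescence (1 μM ATP added, 30 min, room temperature) after a 4 h exposure of human CD73-expressing CHO-K1 cells to 150 μM AMP plus compound, top final 10 μM, 8 points. IC50 came from nonlinear regression of percent inhibition.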

Row | Structure (SMILES) | IC50 [1] [µM] | IC50 (human CD73) [µM]
1 | O=C(NC1CC2C(C1)C2(F)F)O[C@@H]1CCN(c2cn[nH]c(=O)c2Cl)C1 (stereo partly drawn) [P-0441, (R)-1-(5-chloro-6-oxo-1,6-dihydropyridazin-4-yl)pyrrolidin-3-yl (6,6-difluorobicyclo[3.1.0]hexan-3-yl)carbamate] | 0.001 to 10 | 0.001 to 10
2 | O=C(NC1CCN(C(=O)Cc2ccc(F)cc2)CC1)O[C@@H]1CCN(c2cn[nH]c(=O)c2Cl)C1 [P-0443, (R)-1-(5-chloro-6-oxo-1,6-dihydropyridazin-4-yl)pyrrolidin-3-yl (1-(2-(4-fluorophenyl)acetyl)piperidin-4-yl)carbamate] | 0.001 to 10 | 0.001 to 10
3 | O=C(NC1CCN(C(=O)Cc2ccc(Cl)c(F)c2)CC1)O[C@@H]1CCN(c2cn[nH]c(=O)c2Cl)C1 [P-0444, (R)-1-(5-chloro-6-oxo-1,6-dihydropyridazin-4-yl)pyrrolidin-3-yl (1-(2-(4-chloro-3-fluorophenyl)acetyl)piperidin-4-yl)carbamate] | 0.001 to 10 | 0.001 to 10
4 | O=C(NC1CCN(C(=O)Cc2ccc(F)c(Cl)c2)CC1)O[C@@H]1CCN(c2cn[nH]c(=O)c2Cl)C1 [P-0445, (R)-1-(5-chloro-6-oxo-1,6-dihydropyridazin-4-yl)pyrrolidin-3-yl (1-(2-(3-chloro-4-fluorophenyl)acetyl)piperidin-4-yl)carbamate] | 0.001 to 10 | 0.001 to 10
5 | O=C(NC1CC2CCC2C1)O[C@@H]1CCN(c2cn[nH]c(=O)c2Cl)C1 (stereo partly drawn) [P-0446, (R)-1-(5-chloro-6-oxo-1,6-dihydropyridazin-4-yl)pyrrolidin-3-yl bicyclo[3.2.0]heptan-3-ylcarbamate] | 0.001 to 10 | 0.001 to 10
6 | O=C(N[C@@H]1CCC[C@H]1F)O[C@@H]1CCN(c2cn[nH]c(=O)c2Cl)C1 [P-0447, (R)-1-(5-chloro-6-oxo-1,6-dihydropyridazin-4-yl)pyrrolidin-3-yl ((1R,2R)-2-fluorocyclopentyl)carbamate] | 0.001 to 10 | 0.001 to 10
7 | CC1CCCC1NC(=O)O[C@@H]1CCN(c2cnn(CCO)c(=O)c2Cl)C1 (stereo partly drawn) [P-0450, (R)-1-(5-chloro-1-(2-hydroxyethyl)-6-oxo-1,6-dihydropyridazin-4-yl)pyrrolidin-3-yl (2-methylcyclopentyl)carbamate] | 0.001 to 10 | 0.001 to 10
8 | CC1(NC(=O)O[C@@H]2CCN(c3cnn(CCO)c(=O)c3Cl)C2)CCCC1 [P-0452, (R)-1-(5-chloro-1-(2-hydroxyethyl)-6-oxo-1,6-dihydropyridazin-4-yl)pyrrolidin-3-yl (1-methylcyclopentyl)carbamate] | 0.001 to 10 | 0.001 to 10
9 | O=C(NC1CC2C(C1)C2(F)F)O[C@@H]1CCN(c2cnn(CCO)c(=O)c2Cl)C1 (stereo partly drawn) [P-0453, (R)-1-(5-chloro-1-(2-hydroxyethyl)-6-oxo-1,6-dihydropyridazin-4-yl)pyrrolidin-3-yl (6,6-difluorobicyclo[3.1.0]hexan-3-yl)carbamate] | 0.001 to 10 | 0.001 to 10
10 | O=C(N[C@H]1CCC[C@H]1O)O[C@@H]1CCN(c2cn[nH]c(=O)c2Cl)C1 [P-0455, (R)-1-(5-chloro-6-oxo-1,6-dihydropyridazin-4-yl)pyrrolidin-3-yl ((1S,2R)-2-hydroxycyclopentyl)carbamate] | 0.001 to 10 | 10 to 100
11 | O=C(N[C@@H]1CC[C@@H](O)C1)O[C@@H]1CCN(c2cn[nH]c(=O)c2Cl)C1 [P-0457, (R)-1-(5-chloro-6-oxo-1,6-dihydropyridazin-4-yl)pyrrolidin-3-yl ((1R,3R)-3-hydroxycyclopentyl)carbamate] | 0.001 to 10 | 0.001 to 10
12 | O=C(N[C@H]1CC[C@H](O)C1)O[C@@H]1CCN(c2cn[nH]c(=O)c2Cl)C1 [P-0458, (R)-1-(5-chloro-6-oxo-1,6-dihydropyridazin-4-yl)pyrrolidin-3-yl ((1S,3S)-3-hydroxycyclopentyl)carbamate] | 0.001 to 10 | 0.001 to 10
13 | O=C(N[C@@H]1CC[C@H](O)C1)O[C@@H]1CCN(c2cn[nH]c(=O)c2Cl)C1 [P-0460, (R)-1-(5-chloro-6-oxo-1,6-dihydropyridazin-4-yl)pyrrolidin-3-yl ((1R,3S)-3-hydroxycyclopentyl)carbamate] | 0.001 to 10 | 0.001 to 10
14 | O=C(NC1CCCC1=O)O[C@@H]1CCN(c2cn[nH]c(=O)c2Cl)C1 (stereo partly drawn) [P-0461, (R)-1-(5-chloro-6-oxo-1,6-dihydropyridazin-4-yl)pyrrolidin-3-yl (2-oxocyclopentyl)carbamate] | 0.001 to 10 | 0.001 to 10
15 | O=C(NC1CCCC1)O[C@H]1CN(c2cn[nH]c(=O)c2Cl)C[C@@H]1F [P-0462, (3S,4S)-1-(5-chloro-6-oxo-1,6-dihydropyridazin-4-yl)-4-fluoropyrrolidin-3-yl cyclopentylcarbamate] | 0.001 to 10 | 0.001 to 10

Next, values leading:

Row | IC50 [1] [µM] | IC50 (human CD73) [µM] | Structure (SMILES)
16 | 0.001 to 10 | 0.001 to 10 | O=C(NC1C2CCC1CC(F)(F)C2)O[C@@H]1CCN(c2cn[nH]c(=O)c2Cl)C1 (stereo partly drawn) [P-0440, (R)-1-(5-chloro-6-oxo-1,6-dihydropyridazin-4-yl)pyrrolidin-3-yl (3,3-difluorobicyclo[3.2.1]octan-8-yl)carbamate]
17 | 0.001 to 10 | 0.001 to 10 | COc1ccc(CC(=O)N2CCC(NC(=O)O[C@@H]3CCN(c4cn[nH]c(=O)c4Cl)C3)CC2)cc1 [P-0442, (R)-1-(5-chloro-6-oxo-1,6-dihydropyridazin-4-yl)pyrrolidin-3-yl (1-(2-(4-methoxyphenyl)acetyl)piperidin-4-yl)carbamate]
18 | 0.001 to 10 | 0.001 to 10 | O=C(NC12CCC(F)(CC1)C2)O[C@@H]1CCN(c2cn[nH]c(=O)c2Cl)C1 [P-0448, (R)-1-(5-chloro-6-oxo-1,6-dihydropyridazin-4-yl)pyrrolidin-3-yl (4-fluorobicyclo[2.2.1]heptan-1-yl)carbamate]
19 | 0.001 to 10 | 0.001 to 10 | O=C(NC1CC2CC2C1)O[C@@H]1CCN(c2cnn(CCO)c(=O)c2Cl)C1 (stereo partly drawn) [P-0449, (R)-1-(5-chloro-1-(2-hydroxyethyl)-6-oxo-1,6-dihydropyridazin-4-yl)pyrrolidin-3-yl bicyclo[3.1.0]hexan-3-ylcarbamate]
20 | 0.001 to 10 | 0.001 to 10 | O=C(NC1CC2CCC1O2)O[C@@H]1CCN(c2cnn(CCO)c(=O)c2Cl)C1 (stereo partly drawn) [P-0451, (R)-1-(5-chloro-1-(2-hydroxyethyl)-6-oxo-1,6-dihydropyridazin-4-yl)pyrrolidin-3-yl (7-oxabicyclo[2.2.1]heptan-2-yl)carbamate]
21 | 0.001 to 10 | 0.001 to 10 | O=C(N[C@@H]1CCC(F)(F)C1)O[C@@H]1CCN(c2cn[nH]c(=O)c2Cl)C1 [P-0454, (R)-1-(5-chloro-6-oxo-1,6-dihydropyridazin-4-yl)pyrrolidin-3-yl ((R)-3,3-difluorocyclopentyl)carbamate]
22 | 0.001 to 10 | 0.001 to 10 | CCOC(=O)[C@@H]1CCC[C@H]1NC(=O)O[C@@H]1CCN(c2cn[nH]c(=O)c2Cl)C1 [P-0456, ethyl (1R,2R)-2-(((((R)-1-(5-chloro-6-oxo-1,6-dihydropyridazin-4-yl)pyrrolidin-3-yl)oxy)carbonyl)amino) cyclopentane-1-carboxylate]
23 | 0.001 to 10 | 0.001 to 10 | O=C(N[C@H]1CC[C@@H](O)C1)O[C@@H]1CCN(c2cn[nH]c(=O)c2Cl)C1 [P-0459, (R)-1-(5-chloro-6-oxo-1,6-dihydropyridazin-4-yl)pyrrolidin-3-yl ((1S,3R)-3-hydroxycyclopentyl)carbamate]
